Test results from patent US7781423B2, “Compounds to promote regeneration of bone marrow” (priority 2007, dated 2010).

Tests used:
[1] = system: MXT mammary tumor; assay type: in vivo; conditions: MXT tumor-bearing, CP-treated mice, by day 22
Procedure: This experiment was designed to determine whether in a tumor model CC compounds could prevent cyclophosphamide-induced loss of body weight resulting from the depression of blood marrow function. Specified pathogen free (SPF) hygienic category colonies of first generation hybrid BDF1 (C57B1 female×DBA/2 male) adult female mice, weighing 23-24 g, were used. The animals were kept in macrolon cages at 22-24° C. (45-55% humidity), with a lighting regimen of 12/12 h light/dark. […] The animals used in these studies were cared for according to the “Guiding Principles for the Care and Use of Animals” based upon the Helsinki declaration.
MXT mammary tumor pieces (containing about 10^6 tumor cells) were implanted subcutaneously to develop the tumors. After six days when the tumor-bearing mice were first treated, the sizes of the tumors were in the 0.26-0.30 cm^3 range. All compounds used were dissolved in 0.9% sodium chloride and applied subcutaneously (CC compounds) or intraperitoneally (CP) in 50 μl volume. Tumor volume was determined by using calipers in three dimensions; this technique is well known to one having ordinary skill in the art. Tumor volume was calculated according to the generally accepted formula: V=a^2×b×π/6, where “a” and “b” mean the shortest and longest diameter, respectively, of the measured tumor.
In the first group, animals received no treatment. In the second group, mice were administered 120-mg/kg of CP on day 6 followed by seven consecutive daily treatments with the same dose. In the third group, each treatment with CP was associated with administration of 4.5-mg/kg of CCompound1. In the fourth group, each treatment with CP was associated with administration of 4.5-mg/kg of CCompound3. In the fifth group, each treatment with CP was associated with administration of 2.0-mg/kg of CCompound26. Each group included 7 mice. All data represent the average of 7 determinations (one determination with each mouse in the group).

[2] = system: transplanted bone marrow cells; assay: Bone marrow regeneration from transplanted bone marrow cells after lethal irradiation (BM cells, CFU-GM); assay type: in vivo, C57B1 mice; conditions: for CFU-GM per femur / CFU-GM/10^5 nucleated BM cells: CCompound1 4.5 mg per kg i.p. daily, day -3 to day +3
Procedure: C57B1 female (10-14 weeks old) mice received sublethal (250 cGy) whole body irradiation from a ^137Cesium source (day 0). Starting three days before irradiation, animals received daily 4.5 mg per kg of CCompound1 via intraperitoneal injection; this treatment also was provided on day 0 and once daily for three days subsequent to irradiation. In another group, mice were injected only with physiological saline. The subsequent procedure has been reported in Vas, V., Fajka-Boja, R., Ion, G. A., Dudics, V., Monostori, E. and Uher, F., “Biphasic effect of recombinant Galectin-1 on the growth and death of early hematopoietic cells,” Stem Cells, 23, 279-287 (2005). Briefly, bone marrow was flushed from the femurs with Iscove's modified Dulbecco's medium (Gibco BRL, Gaithersburg, Md., USA), and after standard erythrocyte lysis, nucleated cells were counted using a hemocytometer. Samples were taken on days 0, 1, 3, and 10. To measure the formation of the granulocyte-macrophage colony-forming units (CFU-GM), a semisolid colony-forming cell assay was used. Nucleated bone marrow cells (isolated on the days as indicated above) were plated in 35-mm Petri dishes (Costar, Cambridge, Mass., USA) in Iscove's modified Dulbecco's medium supplemented with 1% methylcellulose, 30% horse serum (Gibco), 10% WEHI-3B conditioned medium as a source of growth factors, 4 mM L-glutamine, 0.25 mM a-thioglycerol (Gibco), 1% deionized bovine serum albumine (Sigma), and antibiotics (Gibco). Cells were cultured at 37° C. in 5% CO2/95% air atmosphere and colonies were counted on day 7 in the same dish. Colonies containing at least 50 cells were counted which is a generally accepted value in the literature. Each value represents the mean±st. dev. of 9 samples (3 parallel dishes from each animal).
In this experiment the goal was to determine if CCompound1 can enhance expansion of transplanted bone marrow cells infused after applying a lethal dose of whole body irradiation (which reduces the number of bone marrow cells by more than 90%). C57B1 female mice (10-14 weeks old) were subjected to 900 cGy whole body irradiation from a ^137Cesium source which was followed within 6 hours by infusion of one million donor nucleated bone marrow cells by tail vein injection. Starting 3 days before irradiation, animals received daily 4.5 mg per kg of CCompound1 via intraperitoneal injection; this treatment also was provided on day 0 and once daily for the subsequent 3 days after irradiation. In another group, mice were injected only with physiological saline.
Bone marrow cells were collected on day 0 from non-irradiated animals as well as on days 6, 14, 28 and 42 after irradiation and bone marrow transplantation. Nucleated bone marrow cells were quantified and CFU-GM assay was performed as described in Example 3 while blood profiling was performed as described in Example 1. For each group, on the indicated days bone marrow and blood samples were collected from 3 animals. Each value presented in Table 5 and Table 6 represents the mean±st. dev. of 3 samples (derived from 3 animals).

[3] = day 6 after 900 cGy irradiation and bone marrow transplantation
[4] = day 14 after 900 cGy irradiation and bone marrow transplantation
[5] = day 28 after 900 cGy irradiation and bone marrow transplantation
[6] = day 42 after 900 cGy irradiation and bone marrow transplantation

## Cc1c(OCC(O)C[N+](C)(C)C)cc2c(=O)c3ccccc3sc2c1C.[Cl-] (centres unmarked) [CCcompound1, [3-(3,4-Dimethyl-9-oxo-9H-thioxanthen-2-yloxy)-2-hydroxypropyl]trimethyl-ammonium chloride]
[1]
  effect on body weight: body weight gain
[2]; [3]
  CFU-GM per femur: 134.9
  CFU-GM/10^5 nucleated BM cells: 44.8 ± 5.1
[2]; day 6 following transplantation
  level of bone marrow re-population in the femur, treated versus untreated animals: about 5.3 fold
[2]; [4]
  CFU-GM per femur: 650.4
  CFU-GM/10^5 nucleated BM cells: 81.2 ± 5.3
[2]; day 14 following transplantation
  level of bone marrow re-population in the femur, treated versus untreated animals: ~2.9 fold
[2]; [5]
  CFU-GM per femur: 1,286.4
  CFU-GM/10^5 nucleated BM cells: 125.5 ± 9.1
[2]; [6]
  CFU-GM per femur: 992.4
  CFU-GM/10^5 nucleated BM cells: 71.5 ± 5.3
